Values of other authors as cited in PMC5132270 (Cancer Science, 2016).

What was measured:
[1] = tested on: models of crizotinib resistance; conditions: preclinical studies

CCc1cc2c(cc1N1CCC(N3CCOCC3)CC1)C(C)(C)c1[nH]c3cc(C#N)ccc3c1C2=O [alectinib]
antitumor effect [1]: tumor size reduction

Cc1cc(Nc2ncc(Cl)c(Nc3ccccc3S(=O)(=O)C(C)C)n2)c(OC(C)C)cc1C1CCNCC1 [ceritinib]
median PFS (ALK+ NSCLC): 7.0 months
